Columns and labels:
Enterobacteriaceae = experiment: MIC of pure components in Mueller Hinton gelose; type: cell-based; settings: Enterobacteriaceae n = 13
From the text: (§1) Following a method allowing the dissolution of the active blend in a Mueller Hinton gelose the MIC has been measured with pure components of the active blends 1 to 9.

[1] = system: Staphylococcus And Enterococcus; experiment: MIC of pure components in Mueller Hinton gelose; type: cell-based; settings: Staphylococcus And Enterococcus n = 14
From the text: as §1

Other Gram - rods = experiment: MIC of pure components in Mueller Hinton gelose; type: cell-based; settings: Other Gram - rods n = 15
From the text: as §1

E. faecium = experiment: MIC in Mueller Hinton gelose; type: cell-based, Enterococcus faecium
From the text: (§2) Following a method allowing the dissolution of the active blend in a Mueller Hinton gelose the following MIC has been measured with pure trans-cinnamaldehyde (CNM) and with the active blends 1 to 8 disclosed in table 1.
as §1

Enterococcus = experiment: MIC in Mueller Hinton gelose; type: cell-based, Enterococcus sp
From the text: as §2, §1

E. coli [2] = experiment: MIC in Mueller Hinton gelose; type: cell-based, Escherichia coli
From the text: as §2, §1

P. aeruginosa = experiment: MIC in Mueller Hinton gelose; type: cell-based, Pseudomonas aeruginosa
From the text: as §2, §1

Pseudomonas = experiment: MIC in Mueller Hinton gelose; type: cell-based
From the text: as §2, §1

E. aerogenes = experiment: MIC in Mueller Hinton gelose; type: cell-based; settings: Enterobacter aerogenes 09004
From the text: as §2, §1

Staphylococcus = experiment: MIC in Mueller Hinton gelose; type: cell-based
From the text: as §2, §1

all the strains = experiment: MIC of pure components, all strains of Table 9; type: cell-based; settings: strains of Table 9, tested concentrations
From the text: as §1

Enterobacteria = experiment: Killing-curves, log reduction time; type: cell-based; settings: at MIC × 4
From the text: (§3) Results are expressed in minutes necessary to reduce bacterial counts by 1 log.

All strains (60 strains) = experiment: Killing-curves, log reduction time; type: cell-based; settings: at MIC × 4
From the text: as §3

Other gram− = experiment: Killing-curves, log reduction time; type: cell-based; settings: at MIC × 4
From the text: as §3

Cocci G+ = experiment: Killing-curves, log reduction time; type: cell-based; settings: at MIC × 4
From the text: as §3

A baumanii = experiment: MIC in Mueller Hinton gelose; type: cell-based, Acinetobacter baumanii; settings: A baumanii 09010
From the text: as §2, §1

MRSA = settings: bibliographic data on the main compound; cited from earlier work
[3] = system: Staphylococcus aureus, methicilline resistant; experiment: Treatment of infected mice; type: in vivo, Balb/c mice; settings: MRSA challenge, 10 days observation; reference antibiotic, dose not given
Procedure: (§4) The test is performed on Balb/c mice aged 10 to 12 weeks.
(§5) They are infected by intraperitoneal injection of 4.10^7 Staphylococcus aureus, methicilline resistant, in a growing phase or with E. coli.

E. coli [4] = experiment: Treatment of infected mice; type: in vivo; settings: E. coli challenge, 7 days observation; reference antibiotic, dose not given
Procedure: as §4, §5

VIH = experiment: Activity on VIH (survival of lymphoid cells T4, P24 dosage); type: cell-based; set-up: unit of the concentration uncertain
[5] = concentration 0.0005 (unit uncertain)
[6] = concentration 0.005 (unit uncertain)
[7] = concentration 0.05 (unit uncertain)
[8] = concentration 0.1 (unit uncertain)
[9] = concentration 0.5 (unit uncertain)
[10] = concentration 5 (unit uncertain)

Structure (SMILES): O=C(OCc1ccccc1)c1ccccc1 [Benzyl benzoate, benzyl benzoate]
- MIC Range (Enterobacteriaceae): > 10000 µg/mL
- MIC Range [1]: > 10000 µg/mL
- MIC Range (Other Gram - rods): > 10000 µg/mL

Structure (SMILES): O=C/C=C/c1ccccc1 [CNM, trans-cinnamaldehyde]
- MIC (E. faecium; Enterococcus faecium 09001): 0.031%
- MIC (E. faecium; Enterococcus faecium 09002): 0.031%
- MIC (Enterococcus; Enterococcus 8152): 0.031%
- MIC (Enterococcus; Enterococcus 8153): 0.031%
- MIC (E. coli [2]; E. coli 8137): 0.016%
- MIC (E. coli [2]; E. coli 8138): 0.016%
- MIC (E. coli [2]; E. coli 8141): 0.016%
- MIC (E. coli [2]; E. coli 8142): 0.016%
- MIC (E. coli [2]; E. coli 8150): 0.031%
- MIC (E. coli [2]; E. coli 8151): 0.031%
- MIC (E. coli [2]; E. coli 8154): 0.031%
- MIC (E. coli [2]; E. coli 8155): 0.031%
- MIC (E. coli [2]; E. coli 8156): 0.031%
- MIC (E. coli [2]; E. coli 8157): 0.031%
- MIC (E. coli [2]; E. coli 09003): 0.063%
- MIC (E. coli [2]; E. coli ATCC 25922): 0.015%
- MIC (P. aeruginosa; PS aeruginosa 09007): 0.063%
- MIC (P. aeruginosa; PS aeruginosa ATCC): 0.031%
- MIC (P. aeruginosa; Ps aeruginosa 09008): 0.016%
- MIC (Pseudomonas; Pseudomonas 8127): 0.063%
- MIC (Pseudomonas; Pseudomonas 8128): 0.063%
- MIC (Pseudomonas; Pseudomonas 8129*): 0.063%
- MIC (Pseudomonas; Pseudomonas 8130*): 0.125%
- MIC (Pseudomonas; Pseudomonas 8131*): 0.125%
- MIC (Pseudomonas; Pseudomonas 8132*): 0.125%
- MIC (Pseudomonas; Pseudomonas 8133): 0.125%
- MIC (Pseudomonas; Pseudomonas 8134): 0.016%
- MIC (Pseudomonas; Pseudomonas 8135*): 0.03%
- MIC (Pseudomonas; Pseudomonas 8136*): 0.016%
- MIC (E. aerogenes): 0.063%
- MIC (Staphylococcus; Staphylococcus 8143): 0.031%
- MIC (Staphylococcus; Staphylococcus 8146): 0.031%
- MIC (Staphylococcus; Staphylococcus 8147): 0.031%
- MIC (Staphylococcus; Staphylococcus 8148): 0.031%
- MIC (Staphylococcus; Staphylococcus 8149): 0.016%
- MIC (Staphylococcus; Staphylococcus 8237): 0.008%
- MIC (Staphylococcus; Staphylococcus 8238): 0.031%
- MIC (Staphylococcus; Staphylococcus 8239): 0.031%
- MIC (Staphylococcus; Staphylococcus 8240): 0.031%
- MIC (Staphylococcus; Staphylococcus 8241): 0.031%
- activity / spectrum in words (all the strains): highly effective on all the strains
- Mean Log reduction time (Enterobacteria): 72 min
- Mean Log reduction time (All strains (60 strains)): 111 min
- Mean Log reduction time (Other gram−): 95 min
- Mean Log reduction time (Cocci G+): 195 min
- MIC (A baumanii): 0.016%
- elimination, bibliographic data (MRSA): 1.7 h
- MIC 50 (Enterobacteriaceae): 150 µg/mL
- MIC 90 (Enterobacteriaceae): 600 µg/mL
- MIC 50 [1]: 150 µg/mL
- MIC 90 [1]: 300 µg/mL
- MIC 50 (Other Gram - rods): 600 µg/mL
- MIC 90 (Other Gram - rods): 1250 µg/mL

Structure (SMILES): CN[C@H](CC(C)C)C(=O)N[C@H]1C(=O)N[C@@H](CC(N)=O)C(=O)N[C@H]2C(=O)N[C@H]3C(=O)N[C@H](C(=O)N[C@H](C(=O)O)c4cc(O)cc(O)c4-c4cc3ccc4O)[C@H](O)c3ccc(c(Cl)c3)Oc3cc2cc(c3O[C@@H]2O[C@H](CO)[C@@H](O)[C@H](O)[C@H]2O[C@H]2C[C@](C)(N)[C@H](O)[C@H](C)O2)Oc2ccc(cc2Cl)[C@H]1O [Vancomicin]
- % survival [3]: 100%
- Final score [3]: 10
- Final score, % vs placebo [3]: 42.86%
- Total weight [3]: 1110
- Total weight, % vs placebo [3]: 0.63%

Structure (SMILES): CC12CCC(CC1)C(C)(C)O2 [Cineole, cineole]
- MIC Range (Enterobacteriaceae): > 10000 µg/mL
- MIC Range [1]: > 10000 µg/mL
- MIC Range (Other Gram - rods): > 10000 µg/mL

Structure (SMILES): C=CC(C)(O)CCC=C(C)C (centres unmarked) [Linalool, linalool]
- activity / spectrum in words (all the strains): wide
- MIC 50 (Enterobacteriaceae): 2500 µg/mL
- MIC 90 (Enterobacteriaceae): 10000 µg/mL
- MIC 50 [1]: 2500 µg/mL
- MIC 90 [1]: 10000 µg/mL
- MIC 50 (Other Gram - rods): > 10000 µg/mL
- MIC 90 (Other Gram - rods): > 10000 µg/mL

Structure (SMILES): COc1ccccc1/C=C/C=O [Trans-methoxycinnamaldehyde, trans-2-methoxycinnamaldehyde]
- MIC Range (Enterobacteriaceae): > 10000 µg/mL
- MIC Range [1]: > 10000 µg/mL
- MIC Range (Other Gram - rods): > 10000 µg/mL

Structure (SMILES): C=C1CC/C=C(\C)CC[C@@H]2[C@@H]1CC2(C)C [Caryophyllene, beta-caryophyllene]
- activity / spectrum in words (all the strains): narrow
- MIC 50 (Enterobacteriaceae): > 10000 µg/mL
- MIC 90 (Enterobacteriaceae): > 10000 µg/mL
- MIC Range (Enterobacteriaceae): > 10000 µg/mL
- MIC 50 [1]: > 10000 µg/mL
- MIC 90 [1]: > 10000 µg/mL
- MIC 50 (Other Gram - rods): > 10000 µg/mL
- MIC 90 (Other Gram - rods): > 10000 µg/mL
- MIC Range (Other Gram - rods): > 10000 µg/mL

Structure (SMILES): CC(=O)OCC=Cc1ccccc1 [Cinnamyl acetate, cinnamyl acetate]
- activity / spectrum in words (all the strains): intermediate
- MIC 50 (Enterobacteriaceae): > 10000 µg/mL
- MIC 90 (Enterobacteriaceae): > 10000 µg/mL
- MIC Range (Enterobacteriaceae): > 10000 µg/mL
- MIC 50 [1]: > 10000 µg/mL
- MIC 90 [1]: > 10000 µg/mL
- MIC 50 (Other Gram - rods): > 10000 µg/mL
- MIC 90 (Other Gram - rods): > 10000 µg/mL

Structure (SMILES): CC1(C)S[C@@H]2[C@H](NC(=O)[C@H](N)c3ccc(O)cc3)C(=O)N2[C@H]1C(=O)O [Amoxicillin]
- % survival (E. coli [4]): 100%
- Final score (E. coli [4]): 6
- Final score, % vs placebo (E. coli [4]): 10.70%
- Total health score (E. coli [4]): 678
- Total health score, % vs placebo (E. coli [4]): 38.93%
- Total weight (E. coli [4]): 849
- Total weight, % vs placebo (E. coli [4]): 23.58%

Structure (SMILES): Cc1cn([C@H]2C[C@H](N=[N+]=[N-])[C@@H](CO)O2)c(=O)[nH]c1=O [AZT]
- % Survival (lymphoid cells T4) (VIH; [5]): 10.0%
- Dosage P24 (% inhibition vs T+ of the plate) (VIH; [5]): 39%
- % Survival (lymphoid cells T4) (VIH; [6]): 7.0%
- Dosage P24 (% inhibition vs T+ of the plate) (VIH; [6]): 48%
- % Survival (lymphoid cells T4) (VIH; [7]): 36.0%
- Dosage P24 (% inhibition vs T+ of the plate) (VIH; [7]): 80%
- % Survival (lymphoid cells T4) (VIH; [8]): 86.0%
- Dosage P24 (% inhibition vs T+ of the plate) (VIH; [8]): 99%
- % Survival (lymphoid cells T4) (VIH; [9]): 97.8%
- Dosage P24 (% inhibition vs T+ of the plate) (VIH; [9]): 100%
- % Survival (lymphoid cells T4) (VIH; [10]): 108.7%
- Dosage P24 (% inhibition vs T+ of the plate) (VIH; [10]): 100%

— patent publication US20130324597A1, “PHARMACEUTICAL COMPOSITION COMPRISING TRANS-[…] AND ITS USE IN THE TREATMENT OF INFECTIONS” (priority 2010, published 2013)
